Target: Polymerase acidic protein (Influenza A virus (strain A/Puerto Rico/8/1934 H1N1), UniProt P03433)
Experiment: Inhibition of cap 1 ALMV primed Influenza transcriptase

Row | Structure (SMILES) | IC50 [µM]
1 | NC(=O)C(=O)CC(=O)C1CCCCC1 | > 500
2 | O=C(O)C(=O)CS(=O)(=O)c1ccccc1 | > 500
3 | O=C(O)C(=O)Cc1cc2ccccc2o1 | > 500
4 | Cn1c(CC(=O)C(=O)O)nc2ccccc21 | > 500
5 | O=C(O)C(=O)Cc1nc2ccccc2s1 | > 500
